Results on 16 compounds are retold here after PubChem BioAssay AID256 (DTP/NCI, 2004).

The test system of this assay is CD2F1 mice, L1210 leukemia ip, survival T/C. Kind of assay: NCI In Vivo Anticancer Drug Screen. Data for tumor model L1210 Leukemia (intraperitoneal) in CD2F1 (CDF1) mice. As to conditions: higher = longer survival. Summed up: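 Tumor-bearing mice (transplanted tumor) were split into treated and vehicle control groups, and the measured endpoint of each treated group was divided by that of its vehicle controls.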

Where [1] appears, read: endpoint: mean survival time, dose: 400.0 mg/kg/injection, schedule: Q04DX003 (ip), vehicle: saline with Tween-80.
The mark [2] stands for this setting: endpoint: mean survival time, dose: 25.0 mg/kg/injection, schedule: Q01DX005 (ip), vehicle: water.
Where [3] appears, read: endpoint: mean survival time, dose: 50.0 mg/kg/injection, schedule: Q01DX005 (ip), vehicle: water.
[4] abbreviates: endpoint: mean survival time, dose: 100.0 mg/kg/injection, schedule: Q01DX005 (ip), vehicle: water.
The mark [5] stands for this setting: endpoint: mean survival time, dose: 100.0 mg/kg/injection, schedule: Q01DX001 (ip), vehicle: saline with Tween-80.
Setting [6] is: endpoint: mean survival time, dose: 200.0 mg/kg/injection, schedule: Q01DX001 (ip), vehicle: saline with Tween-80.
Where [7] appears, read: endpoint: mean survival time, dose: 400.0 mg/kg/injection, schedule: Q01DX001 (ip), vehicle: saline with Tween-80.

“And” between values parts separate entries of the source, which are not always exact repeats. Identical values can stand only once. Toxic doses and inconclusive results are not listed.

With `O=C[C@@H](CO)O[C@H](C=O)c1c[nH]c(=O)[nH]c1=O`, the T/C was 118 % of control (endpoint: median survival time, dose: 2.5 mg/kg/injection, schedule: Q01DX009 (ip), vehicle: saline); 102 % of control (endpoint: median survival time, dose: 7.5 mg/kg/injection, schedule: Q04DX003 (ip), vehicle: saline); 124 % of control (endpoint: median survival time, dose: 12.5 mg/kg/injection, schedule: Q01DX009 (ip), vehicle: water); 102 % of control (endpoint: median survival time, dose: 15.0 mg/kg/injection, schedule: Q04DX003 (ip), vehicle: saline); 114 % of control (endpoint: median survival time, dose: 30.0 mg/kg/injection, schedule: Q04DX003 (ip), vehicle: saline); 158 % of control (endpoint: median survival time, dose: 40.0 mg/kg/injection, schedule: Q01DX009 (ip), vehicle: saline). For the same compound, the T/C is 158 % of control (endpoint: median survival time, dose: 50.0 mg/kg/injection, schedule: Q01DX009 (ip), vehicle: saline); 156 % of control (endpoint: median survival time, dose: 54.0 mg/kg/injection, schedule: Q04DX003 (ip), vehicle: saline); 119 % of control (endpoint: median survival time, dose: 60.0 mg/kg/injection, schedule: Q04DX003 (ip), vehicle: saline); 151 % of control (endpoint: median survival time, dose: 66.7 mg/kg/injection, schedule: Q04DX003 (ip), vehicle: saline); 178 % of control (endpoint: median survival time, dose: 90.0 mg/kg/injection, schedule: Q04DX003 (ip), vehicle: saline); 89 % of control (endpoint: median survival time, dose: 100.0 mg/kg/injection, schedule: Q01DX009 (ip), vehicle: water). Moreover, the T/C reads like this: (endpoint: median survival time, dose: 100.5 mg/kg/injection, schedule: Q04DX003 (ip), vehicle: saline) 164 % of control; (endpoint: median survival time, dose: 105.0 mg/kg/injection, schedule: Q04DX003 (ip), vehicle: saline) 229 % of control; (endpoint: median survival time, dose: 120.0 mg/kg/injection, schedule: Q04DX003 (ip), vehicle: saline) 175 % of control and 184 % of control; (endpoint: median survival time, dose: 135.0 mg/kg/injection, schedule: Q04DX003 (ip), vehicle: saline) 164 % of control; (endpoint: median survival time, dose: 165.0 mg/kg/injection, schedule: Q04DX003 (ip), vehicle: saline) 625 % of control; (endpoint: median survival time, dose: 180.0 mg/kg/injection, schedule: Q04DX003 (ip), vehicle: saline) 218 % of control and 228 % of control. Moreover, where the note is “endpoint: median survival time, dose: 224.9 mg/kg/injection, schedule: Q04DX003 (ip), vehicle: saline”, the T/C was 202 % of control.
For `Cc1ccc(S(=O)(=O)OCC(OS(=O)(=O)c2ccc(C)cc2)C(O)C(O)C(O)CO)cc1` (stereo not drawn), the T/C runs as follows: (endpoint: mean survival time, dose: 100.0 mg/kg/injection, schedule: Q04DX003 (ip), vehicle: saline with Tween-80) 97 % of control; (endpoint: mean survival time, dose: 200.0 mg/kg/injection, schedule: Q04DX003 (ip), vehicle: saline with Tween-80) 91 % of control; under setting [1], 91 % of control.
`CCOC(=O)C(CC)(OC(C)=O)C(=O)C=O` (stereo not drawn): the T/C by setting is: (endpoint: mean survival time, dose: 100.0 mg/kg/injection, schedule: Q01DX001 (ip), vehicle: saline) 108 % of control; (endpoint: mean survival time, dose: 200.0 mg/kg/injection, schedule: Q01DX001 (ip), vehicle: saline) 112 % of control; (endpoint: mean survival time, dose: 400.0 mg/kg/injection, schedule: Q01DX001 (ip), vehicle: saline) 116 % of control.
As to `CC1c2ccc3ccccc3c2C(=O)c2cccc(Cl)c21` (stereo not drawn), the T/C was 100 % of control (endpoint: median survival time, dose: 50.0 mg/kg/injection, schedule: Q04DX002 (ip), vehicle: saline with Tween-80); 100 % of control (endpoint: median survival time, dose: 100.0 mg/kg/injection, schedule: Q04DX002 (ip), vehicle: saline with Tween-80); 111 % of control (endpoint: median survival time, dose: 200.0 mg/kg/injection, schedule: Q04DX002 (ip), vehicle: saline with Tween-80); 88 % of control (endpoint: median survival time, dose: 400.0 mg/kg/injection, schedule: Q04DX002 (ip), vehicle: saline with Tween-80).
`COC(=O)CCCCCCCCCC(=O)OC`: the T/C (endpoint: mean survival time, dose: 100.0 mg/kg/injection, schedule: Q04DX002 (ip), vehicle: saline with Tween-80) is 87 % of control; the T/C (endpoint: mean survival time, dose: 200.0 mg/kg/injection, schedule: Q04DX002 (ip), vehicle: saline with Tween-80) was 102 % of control; the T/C (endpoint: mean survival time, dose: 400.0 mg/kg/injection, schedule: Q04DX002 (ip), vehicle: saline with Tween-80) is 98 % of control.
As to `CNc1ncnc2c(C3OC(CO)C(O)C3O)[nH]nc12` (stereo not drawn), the T/C reads like this: under setting [2], 108 % of control; under setting [3], 120 % of control; under setting [4], 96 % of control.
Take `Nc1cncc([N+](=O)[O-])c1N`: the T/C is 98 % of control under setting [5], 101 % of control under setting [6] and 101 % of control under setting [7].
In the case of `N#C/C(=C\c1cc(Br)cc(Br)c1O)c1ccc([N+](=O)[O-])cc1`, the T/C (endpoint: mean survival time, dose: 100.0 mg/kg/injection, schedule: Q01DX009 (ip), vehicle: saline with Tween-80) was 103 % of control; the T/C (endpoint: mean survival time, dose: 200.0 mg/kg/injection, schedule: Q01DX009 (ip), vehicle: saline with Tween-80) is 96 % of control; the T/C (endpoint: mean survival time, dose: 400.0 mg/kg/injection, schedule: Q01DX009 (ip), vehicle: saline with Tween-80) is 94 % of control.
Turning to `CN(C)c1ccc(C(Cc2ccc(Nc3ccccc3)c3ccccc23)=C2C=CC(=[N+](C)C)C=C2)cc1`, the T/C was 96 % of control (endpoint: mean survival time, dose: 3.13 mg/kg/injection, schedule: Q01DX001 (ip), vehicle: saline); 93 % of control (endpoint: mean survival time, dose: 6.25 mg/kg/injection, schedule: Q01DX001 (ip), vehicle: saline); 118 % of control and 93 % of control (endpoint: mean survival time, dose: 12.5 mg/kg/injection, schedule: Q01DX001 (ip), vehicle: saline); 106 % of control (endpoint: mean survival time, dose: 25.0 mg/kg/injection, schedule: Q01DX001 (ip), vehicle: saline).
With `O=C(O)Cc1cc(=O)oc2ccccc12`, the T/C is 104 % of control under setting [5], 104 % of control under setting [6] and 96 % of control under setting [7].
In the case of `O=c1[nH]c(=O)n(C2CC(O)C(CO)O2)cc1CN1CCCC1` (stereo not drawn), the T/C reads like this: (endpoint: mean survival time, dose: 6.25 mg/kg/injection, schedule: Q01DX005 (ip), vehicle: water) 95 % of control; (endpoint: mean survival time, dose: 12.5 mg/kg/injection, schedule: Q01DX005 (ip), vehicle: water) 109 % of control; under setting [2], 87 % of control; under setting [3], 102 % of control; under setting [4], 102 % of control; (endpoint: mean survival time, dose: 200.0 mg/kg/injection, schedule: Q01DX005 (ip), vehicle: water) 96 % of control. For the setting “endpoint: mean survival time, dose: 400.0 mg/kg/injection, schedule: Q01DX005 (ip), vehicle: water”, the T/C was 96 % of control.
`Nc1nc(N)c2nc(CNc3ccc(C(=O)NC(CCC(=O)O)C(=O)O)cc3)ccc2n1` (stereo not drawn): the T/C is, setting by setting: (endpoint: mean survival time, dose: 15.63 micrograms/kg/injection, schedule: Q01DX005 (ip), vehicle: sodium bicarbonate) 118 % of control; (endpoint: mean survival time, dose: 31.25 micrograms/kg/injection, schedule: Q01DX005 (ip), vehicle: sodium bicarbonate) 118 % of control; (endpoint: mean survival time, dose: 62.5 micrograms/kg/injection, schedule: Q01DX005 (ip), vehicle: sodium bicarbonate) 120 % of control and 110 % of control; (endpoint: mean survival time, dose: 125.0 micrograms/kg/injection, schedule: Q01DX005 (ip), vehicle: sodium bicarbonate) 113 % of control.
For `CC(=O)OCC1OC(OC(C)=O)C(NC(=O)NCCI)C(OC(C)=O)C1OC(C)=O` (stereo not drawn), the T/C (endpoint: mean survival time, dose: 12.5 mg/kg/injection, schedule: Q01DX009 (ip), vehicle: other) is 93 % of control; the T/C (endpoint: mean survival time, dose: 25.0 mg/kg/injection, schedule: Q01DX009 (ip), vehicle: other) was 95 % of control; the T/C (endpoint: mean survival time, dose: 50.0 mg/kg/injection, schedule: Q01DX009 (ip), vehicle: other) is 92 % of control; the T/C (endpoint: mean survival time, dose: 100.0 mg/kg/injection, schedule: Q01DX009 (ip), vehicle: other) is 88 % of control; the T/C (endpoint: mean survival time, dose: 200.0 mg/kg/injection, schedule: Q01DX009 (ip), vehicle: other) is 98 % of control.
`Cc1nc2c(c[n+]1C)CN1C=Nc3c(ncn3C3OC(CO)C(O)C3O)C1=N2` (stereo not drawn): the T/C by setting is: (endpoint: median survival time, dose: 12.5 mg/kg/injection, schedule: Q01DX005 (ip), vehicle: saline) 98 % of control; (endpoint: median survival time, dose: 25.0 mg/kg/injection, schedule: Q01DX005 (ip), vehicle: saline) 100 % of control; (endpoint: median survival time, dose: 50.0 mg/kg/injection, schedule: Q01DX005 (ip), vehicle: saline) 100 % of control; (endpoint: median survival time, dose: 100.0 mg/kg/injection, schedule: Q01DX005 (ip), vehicle: saline) 100 % of control; (endpoint: median survival time, dose: 200.0 mg/kg/injection, schedule: Q01DX005 (ip), vehicle: saline) 100 % of control.
With `CC(CCC(C)(C)O)C1CCC2C3C(O)CC4CCCCC4(C)C3CC(O)C12C` (stereo not drawn), under setting [1], the T/C is 88 % of control.
With `CC([NH-])C[NH-].O=C(O)C(O)C(O)C(O)C(O)CO.O=C(O)C(O)C(O)C(O)C(O)CO.[Pt+2]` (stereo not drawn), the T/C (endpoint: mean survival time, dose: 25.0 mg/kg/injection, schedule: Q04DX003 (ip), vehicle: saline) is 113 % of control; the T/C (endpoint: mean survival time, dose: 50.0 mg/kg/injection, schedule: Q04DX003 (ip), vehicle: saline) is 120 % of control; the T/C (endpoint: mean survival time, dose: 100.0 mg/kg/injection, schedule: Q04DX003 (ip), vehicle: saline) is 123 % of control.
